# Results taken from paper PMC3857843, “Multiple Transport-Active Binding Sites Are Available for a Single Substrate on Human P-Glycoprotein (ABCB1)” (PLoS ONE, 2013).
# What was measured:
# Assay in all cases: Transport of fluorescent substrates in BacMam-transduced HeLa cells (flow cytometry)
# F728C/V982C mutant Pgp = F728C/V982C mutant Pgp (Homo sapiens, UniProt P08183, C1074A/C1125A/C1227A/C137A/C431A/C717A/C956A/F728C/V982C); conditions: compared to cysless WT Pgp (taken as 100%), calcein-AM 0.5 µM 10 min, Rh123 […], other substrates 0.5 µM 45 min
# Protocol: (§1) The BacMam-Pgp virus (encoding cysless WT and the mutant Pgps) was added to 2.5 million HeLa cells at a titer of 50-60 viral particles per cell in 3 ml of DMEM and incubated at 37°C [30]. After 1 hr DMEM was added to make a total of 20 ml in the flask and these infected cells were further incubated for 3-4 hrs. 10 mM butyric acid was then added and the cells continued to incubate at 37°C. After 24 hrs, the cells were trypsinized, washed, counted and analyzed by flow cytometry for cell surface expression and the function of the wildtype and mutant Pgps.
# (§2) The transport function of cysless WT and mutant Pgps was determined using fluorescent compounds with flow cytometry as previously described. […] Cells were washed with cold PBS and resuspended in PBS containing 0.1% BSA before analysis.
# Y307C/V982C mutant Pgp = Y307C/V982C mutant Pgp (Homo sapiens, UniProt P08183, C1074A/C1125A/C1227A/C137A/C431A/C717A/C956A/V982C/Y307C); conditions: compared to cysless WT Pgp (taken as 100%), calcein-AM 0.5 µM 10 min, Rh123 […], other substrates 0.5 µM 45 min
# Protocol: as §1, §2
# Y307C mutant Pgp = Y307C mutant Pgp (Homo sapiens, UniProt P08183, C1074A/C1125A/C1227A/C137A/C431A/C717A/C956A/Y307C); conditions: compared to cysless WT Pgp (taken as 100%), calcein-AM 0.5 µM 10 min, Rh123 […], other substrates 0.5 µM 45 min
# Protocol: as §1, §2
# F728C mutant Pgp = F728C mutant Pgp (Homo sapiens, UniProt P08183, C1074A/C1125A/C1227A/C137A/C431A/C717A/C956A/F728C); conditions: compared to cysless WT Pgp (taken as 100%), calcein-AM 0.5 µM 10 min, Rh123 […], other substrates 0.5 µM 45 min
# Protocol: as §1, §2
# Q725C/V982C mutant Pgp = Q725C/V982C mutant Pgp (Homo sapiens, UniProt P08183, C1074A/C1125A/C1227A/C137A/C431A/C717A/C956A/Q725C/V982C); conditions: compared to cysless WT Pgp (taken as 100%), calcein-AM 0.5 µM 10 min, Rh123 […], other substrates 0.5 µM 45 min
# Protocol: as §1, §2
# F978C mutant Pgp = F978C mutant Pgp (Homo sapiens, UniProt P08183, C1074A/C1125A/C1227A/C137A/C431A/C717A/C956A/F978C); conditions: compared to cysless WT Pgp (taken as 100%), calcein-AM 0.5 µM 10 min, Rh123 […], other substrates 0.5 µM 45 min
# Protocol: as §1, §2
# Q725C mutant Pgp = Q725C mutant Pgp (Homo sapiens, UniProt P08183, C1074A/C1125A/C1227A/C137A/C431A/C717A/C956A/Q725C); conditions: compared to cysless WT Pgp (taken as 100%), calcein-AM 0.5 µM 10 min, Rh123 […], other substrates 0.5 µM 45 min
# Protocol: as §1, §2
# F343C/V982C mutant Pgp = F343C/V982C mutant Pgp (Homo sapiens, UniProt P08183, C1074A/C1125A/C1227A/C137A/C431A/C717A/C956A/F343C/V982C); conditions: compared to cysless WT Pgp (taken as 100%), calcein-AM 0.5 µM 10 min, Rh123 […], other substrates 0.5 µM 45 min
# Protocol: as §1, §2
# F343C mutant Pgp = F343C mutant Pgp (Homo sapiens, UniProt P08183, C1074A/C1125A/C1227A/C137A/C431A/C717A/C956A/F343C); conditions: compared to cysless WT Pgp (taken as 100%), calcein-AM 0.5 µM 10 min, Rh123 […], other substrates 0.5 µM 45 min
# Protocol: as §1, §2
# [1] = target: Y307C/Q725C/V982C mutant Pgp (Homo sapiens, UniProt P08183, C1074A/C1125A/C1227A/C137A/C431A/C717A/C956A/Q725C/V982C/Y307C); conditions: Y307/Q725C/V982C in HeLa cells; compared to cysless WT Pgp (taken as 100%); calcein-AM 0.5 µM 10 min, Rh123 […], other substrates 0.5 µM 45 min
# Protocol: as §1, §2
# V982C mutant Pgp = V982C mutant Pgp (Homo sapiens, UniProt P08183, C1074A/C1125A/C1227A/C137A/C431A/C717A/C956A/V982C); conditions: compared to cysless WT Pgp (taken as 100%), calcein-AM 0.5 µM 10 min, Rh123 […], other substrates 0.5 µM 45 min
# Protocol: as §1, §2
compound,measurement,setting,value
"CC(=O)OCOC(=O)CN(CC(=O)OCOC(C)=O)Cc1cc2c(cc1OC(C)=O)Oc1cc(OC(C)=O)c(CN(CC(=O)OCOC(C)=O)CC(=O)OCOC(C)=O)cc1C21OC(=O)c2ccccc21 [CalAM, calcein-AM]",Transport function,F728C/V982C mutant Pgp,55-65%
same,Transport function,Y307C/V982C mutant Pgp,90-100%
same,Transport function,Y307C mutant Pgp,90-100%
same,Transport function,F728C mutant Pgp,90-100%
same,Transport function,Q725C/V982C mutant Pgp,90-100%
same,Transport function,F978C mutant Pgp,90-100%
same,Transport function,Q725C mutant Pgp,90-100%
same,Transport function,F343C/V982C mutant Pgp,90-100%
same,Transport function,F343C mutant Pgp,90-100%
same,Transport function,[1],90-100%
same,Transport function,V982C mutant Pgp,90-100%
